This note sets out measurements from patent US12624127B2, “Chitosan derivatives as antimicrobials and synergistic combinations thereof” (priority 2022, dated 2026).

In one data set the test system is A. baumannii. Put plainly: MIC determination, broth micro dilution. It counts as cell-based, Acinetobacter baumannii. The following applies: Acinetobacter baumannii; A. baumannii AB-1, antibiotic alone; read-out: MIC of antibiotic without 2,6-DAC. The method, then: (§1) MIC values were determined using a broth micro dilution method. Bacteria cells were grown overnight at 37° C. in MHB to a mid-log phase (OD600 between 0.4-0.5 for each organism) and diluted in MHB to 10^5 CFU/mL. […] 50 μL of the 1-5×10^5 CFU/mL bacterial cultures (final concentration) was aliquoted into 96-well microtiter plates and mixed with 50 μL of two-fold dilutions of the polymer or antibiotics and incubated for 16-18 h at 37° C. with shaking at 200 rpm.
(§2) 2,6-DAC was screened as a potentiating agent for synergistic combinations with antibiotics against both A. baumannii AB-1 and MRSA USA300. Before the synergy tests, the MIC values of antibiotics were tested against MDR A. baumannii AB-1 and MRSA USA300 by following the MIC determination protocol in Example 4. Then, the synergy of 2,6-DAC with antibiotics was determined.

Data set [1] deals with MDR A. baumannii (AB-1). Put plainly: Intraperitoneal infection model in BALB/c mice. It counts as in vivo, Acinetobacter baumannii. The method, then: Bacterial cultures of MDR A. baumannii (AB-1) were prepared and used to infect 8-week-old female BALB/c mice. 10^6 CFU/mL of AB-1 (300 μL) was injected into the intraperitoneal cavity to introduce the infection. After 2 h of infection, specific dosage of antibiotic (novobiocin or rifampicin, 10 mg/kg), 2,6-DAC (25 mg/kg) or the combination of antibiotic (novobiocin or rifampicin, 10 mg/kg) and 2,6-DAC (25 mg/kg) were injected into the intraperitoneal cavity. PBS was used as a control. Mice euthanasian at the indicated time points (18 h) was achieved by CO2 asphyxiation followed by cervical dislocation. The intraperitoneal fluid, kidney, spleen and liver were recovered, and counted for bacteria concentration. For histopathological analysis, the kidney, spleen and liver were fixed in 10% neutral buffered formalin and embedded in paraffin. The paraffin-embedded sections were stained with H&E. The animal studies were carried out in accordance to protocol (A20029) approved by the NTU Institutional Animal Care and Use Committee (NTU-IACUC).

Data set [2] concerns A. baumannii AB-1. Put plainly: Checkerboard synergy assay of 2,6-DAC with antibiotics. Type of data set: cell-based, Acinetobacter baumannii. To be noted: A. baumannii AB-1. The protocol: as §2
(§3) Synergy was measured by time killing assay and checkerboard assay. Time killing assay was performed by following the protocol in Example 4. Checkerboard susceptibility assays to measure combinations of antimicrobials were performed in MHB at 37° C. as previously described (K. R. V. Thappeta et al., ACS Infect. Dis. 2020, 6, 1228-1237; and Z. Si et al., Angew. Chem. Int. Ed. 2020, 59, 6819-6826). The fractional inhibitory concentration (FIC) indices were calculated according to the following formula: […]

The next data set relates to MRSA USA300. Described as above. The following applies: antibiotic concentration in combination with 2,6-DAC. Type of data set: cell-based. The protocol: as §2, §3
The test system of a further data set is MRSA. Put plainly: MIC determination, broth micro dilution. Type of data set: cell-based. To be noted: Staphylococcus aureus; MRSA USA300; read-out: MIC of antibiotic alone / without 2,6-DAC. The method, then: as §1, §2
Data set [3] deals with A. baumannii AB-1. Put plainly: Time killing assay. It counts as cell-based, Acinetobacter baumannii. The method, then: The plates were sealed and incubated at 37° C. with shaking at 200 rpm.
At 0, 0.5, 1, 2, 3, 5, and 24 h post-inoculation, each well was thoroughly mixed with a multi-channel pipette and 20 μL of sample was removed, serially diluted in sterile PBS, plated on LB agar plates, and incubated at 37° C. for 12 h. Colonies were counted to determine the CFU/mL at each time point.
as §3

Data set [4] concerns MDR A. baumannii (AB-1). Put plainly: Neutropenic lung infection model in BALB/c mice. The following applies: rifampicin 10 mg/kg alone, 24 h. Type of data set: in vivo, Acinetobacter baumannii.
Protocol: Bacterial cultures of MDR . baumannii (AB-1) were prepared and used to infect 8-week-old female BALB/c mice. 10^8 CFU/mL of AB-1 (30 μL) was inhaled by the mouse to introduce the infection via the intranasal route. After 2 h of infection, a specific dosage of antibiotic (novobiocin or rifampicin, 10 mg/kg), 2,6-DAC (25 mg/kg) or the combination of antibiotic (novobiocin or rifampicin, 10 mg/kg) and 2,6-DAC (25 mg/kg) were administrated through the intranasal route for 2,6-DAC and through the intraperitoneal route for antibiotic. Mice euthanasian at indicated time points (24 h) was achieved by CO2 asphyxiation followed by cervical dislocation. For histopathological analysis, the lung was fixed in 10% neutral buffered formalin and embedded in paraffin. The paraffin-embedded sections were stained with H&E. The lung was recovered and counted for bacteria concentration.
On the set-up of data set [5]: species or system mice. The following applies: mouse, in vivo, ip, 25 mg/kg. The protocol: The biomarkers were determined before treatment (Day 0), and Day 1 and Day 7 after administration. The biomarkers of Day 0 were the untreated controls. The animal experiments were carried out in accordance to the Code of Practice for the Institutional Care and Use of Animals for Scientific Purposes and were approved by the Ethics Committee of Ningbo University.

A further data set concerns 3T3 cells. The protocol: In a 96-well plate, 3T3 cells were co-cultured for 24 h at 37° C. with polymer (100 μg/mL or 200 μg/mL) at initial cell density of 1×10^5 cells per well. At the end of the incubation period, the culture medium was removed, each well was washed with PBS followed by the addition of MTT solution, and the plate was incubated for 4 h at 37° C. The MTT medium was then removed, 100 μL of DMSO was added to each well, the plate was shaken at 100 rpm for 15 min and the absorbance at 570 nm was measured with plate reader (BIO-RAD Benchmark Plus, US).

The test system of data set [6] is rabbit erythrocyte suspension. Put plainly: Hemolytic activity test. To be noted: 78 μg/mL, 1 h. It counts as cell-based. The method, then:
Fresh rabbit blood (5 mL) was washed three times with sterilized PBS and diluted to a final concentration of 5% v/v. A series concentration of 2,6-DAC and Gramicidin control were incubated with the prepared erythrocyte suspension for 1 h with shaking in a 96-well plate. The supernatant (80 μL) was aliquoted to a new plate after centrifugation at 1000 g for 10 min. The absorbance at 540 nm was recorded by the TECAN microplate reader. 0.1% Triton X-100 that can lyse red blood cells completely was used as the positive control (Op), and PBS was used as the negative control (On). The percentage of hemolysis was determined by the following equation: Hemolysis%=[(Ox−On)/(Op−On)]×100% Results and Discussion

For the compound `CO[C@@H]1[C@@H](OC(N)=O)[C@@H](O)[C@H](Oc2ccc3c(O)c(NC(=O)c4ccc(O)c(CC=C(C)C)c4)c(=O)oc3c2C)OC1(C)C` [Novobiocin], the MIC stood at 8 µg/mL in the data set with A. baumannii and 0.125 µg/mL in the data set on MRSA. Besides, the “Histology of liver, spleen and kidney, combination treatment (in words)” value in the data set with MDR A. baumannii (AB-1) [1] (2,6-DAC + novobiocin, H&E) was “significantly alleviated these tissue abnormalities”. Also, the “Histology of liver, spleen and kidney, individual treatment (in words)” value in the data set with MDR A. baumannii (AB-1) [1] (alone, H&E, vs infection control) is “did not improve the tissue appearance”. Moreover, in the data set with MDR A. baumannii (AB-1) [1] (alone: 2,6-DAC 25 mg/kg or novobiocin 10 mg/kg, i.p., 18 h), the “Efficacy of single agent in intraperitoneal fluid and distal organs (in words)” value is “ineffective”. For the same compound, in the data set with A. baumannii AB-1 [2], the “Synergy with 2,6-DAC (in words)” value was “synergistic activity”. The “MIC, antibiotic in combination” value with A. baumannii AB-1 [2] (antibiotic concentration in combination with 2,6-DAC (8 μg/mL)) was 0.5 µg/mL; in the data set on MRSA USA300, 0.03125 µg/mL. In addition, in the data set with A. baumannii AB-1 [3] (2,6-DAC 0.25×MIC + novobiocin 0.125 to 0.25×MIC), the “Bacteria killing, combination with 2,6-DAC” value was 4 log10. In the data set with A. baumannii AB-1 [3] (sub-inhibitory concentration, alone, 24 h), the “Killing of bacteria by single agent (in words)” value was “no killing of bacteria”.

In the case of `CO[C@H]1/C=C/O[C@@]2(C)Oc3c(C)c(O)c4c(O)c(c(/C=N/N5CCN(C)CC5)c(O)c4c3C2=O)NC(=O)/C(C)=C\C=C\[C@H](C)[C@H](O)[C@@H](C)[C@@H](O)[C@@H](C)[C@H](OC(C)=O)[C@@H]1C` [Rifampicin], in the data set with MDR A. baumannii (AB-1) [4], the “Reduction of lung bacteria, single agent” value was “around 1.6 log10”.

With 2,6-Diamino Chitosan [Compound 5a], in data set [5], the “Change in biomarkers of kidney and liver functions (in words)” value was “did not cause a significant change”. Also, in the data set with 3T3 cells, the “Biocompatibility (in words)” value is listed as “good biocompatibility”.

For Gramicidin, the Hemolysis in data set [6] came to 100%.
